# According to patent publication US20220324835A1 (Nurix Therapeutics, Inc., priority 2018, published 2022):
# Legend:
# [1] = tested on: human T-cells with allogenic immature dendritic cells; experiment: Allogenic mixed lymphocyte reaction (MLR), T-cell proliferation; type: cell-based; conditions: 120 h, 5 days, baseline T-cells without Cbl-b inhibitor, read-out: Proliferation, fold change over baseline
# Experimental: Cbl-b inhibitor effects on primary human T-cells were also evaluated in the context of an allogenic mixed lymphocyte reaction (MLR). Allogenic immature dendritic cells were generated under the following conditions. Peripheral blood mononuclear cells (PBMC) were obtained either: 1) by using Ficoll-Paque™ (GE Healthcare) for separation of peripheral blood hematopoietic cells from huffy coats of healthy human donors; or 2) directly from LeukoPak donations. […] Monocytes were cultured with 30 ng/mL of recombinant human GM-CSF and 20 ng/mL of recombinant human IL-4 for seven days to generate immature dendritic cells. Monocytes and T-cells were either isolated fresh from peripheral blood or thawed from frozen stocks. Human T-cells were isolated, labeled with CFSE and incubated with inhibitors as described above. […] Proliferation of the T-cells was evaluated by flow cytometry.
# Readouts for the allogenic mixed lymphocyte reaction were reported as fold change over baseline. Baseline for this study was the measurement obtained from total human T-cells stimulated with allogenic immature dendritic cells, wherein the T-cells were not incubated with a Cbl-b inhibitor (Table 5). Increases in proliferation greater than 2-fold over baseline were considered a positive response (Table 5).
# Cbl-b (residues 36-427) = Cbl-b (residues 36-427) (Homo sapiens, UniProt Q13191); experiment: Cbl-b binding assay (SPR, Biacore T200); conditions: 20° C., 1:1 binding model
# Summary of the method: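 NeutrAvidin capture chip, 20° C; 50 s injections at 50 μl/min, 90-180 s dissociation; 0.3 M NaCl regeneration. Asterisked column: 50 mM NaCl buffer and 30 nM Src kinase in place of 100 mM NaCl and 60 nM Src kinase. 1:1 fit.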
# T-cell = experiment: CD25 cell surface staining on T-cells stimulated with anti-CD3 antibody alone (Biological Example 2); type: cell-based, human; conditions: T-cell, fold change over baseline, primary human total T-cells, read-out: CD25 staining Anti-CD3 stimulation; for fold induction at 1 µM: 1 μM Cbl-b inhibitor; for fold induction at 8 µM: 8 μM Cbl-b inhibitor
# Cbl-b (residues 36-427), sequence (Q13191 36-427): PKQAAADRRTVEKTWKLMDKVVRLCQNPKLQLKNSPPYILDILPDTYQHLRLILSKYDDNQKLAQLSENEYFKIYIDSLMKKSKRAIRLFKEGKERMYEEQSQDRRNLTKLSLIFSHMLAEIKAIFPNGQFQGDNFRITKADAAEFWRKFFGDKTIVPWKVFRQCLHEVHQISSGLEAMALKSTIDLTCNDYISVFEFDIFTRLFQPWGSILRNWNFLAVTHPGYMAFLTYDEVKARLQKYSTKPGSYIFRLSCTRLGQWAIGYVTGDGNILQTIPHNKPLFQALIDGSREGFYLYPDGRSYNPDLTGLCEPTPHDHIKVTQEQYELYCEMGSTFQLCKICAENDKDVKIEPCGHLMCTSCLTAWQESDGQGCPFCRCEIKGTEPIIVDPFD
Structure (SMILES),fold induction at 3 µM [1],fold induction at 10 µM [1],Kd (Cbl-b (residues 36-427)),fold induction at 1 µM (T-cell),fold induction at 8 µM (T-cell)
"C[C@H](Cc1nncn1C)c1cccc(NC(=O)c2cccc(C(F)(F)F)n2)c1 [Compound 183a, (R)-N-(3-(1-(4-methyl-4H-1,2,4-triazol-3-yl)propan-2-yl)phenyl)-6-(trifluoromethyl)picolinamide]",< 2,< 2,0.1 to 0.3 µM,> 1,> 1
"Cc1cc(C(=O)Nc2cccc([C@H](C)Cc3nncn3C)c2)nc(C2CC2)n1 [Compound 195, (R)-2-cyclopropyl-6-methyl-N-(3-(1-(4-methyl-4H-1,2,4-triazol-3-yl)propan-2-yl)phenyl)pyrimidine-4-carboxamide]",< 2,2.01 to 3,< 0.1 µM,> 1,> 1
"C[C@H](Cc1nncn1C)c1cccc(N2Cc3c(cccc3C(F)(F)F)C2=O)c1 [Compound 255a, (R)-2-(3-(1-(4-methyl-4H-1,2,4-triazol-3-yl)propan-2-yl)phenyl)-4-(trifluoromethyl)isoindolin-1-one]",< 2,< 2,0.1 to 0.3 µM,0.601 to 0.8,> 1
"C[C@H](Cc1nncn1C)c1cccc(NC(=O)c2n[nH]c3c2CCC3)c1 [Compound 313, (R)-N-(3-(1-(4-Methyl-4H-1,2,4-triazol-3-yl)propan-2-yl)phenyl)-1,4,5,6-tetrahydrocyclopenta[c]pyrazole-3-carboxamide]",< 2,< 2,0.301 to 1 µM,0.601 to 0.8,0.801 to 1
"Cc1cc(C(=O)Nc2cccc([C@@H](C)Cc3nncn3C)c2)nc(C2CC2)n1 [Compound 325, (S)-2-Cyclopropyl-6-methyl-N-(3-(1-(4-methyl-4H-1,2,4-triazol-3-yl)propan-2-yl)phenyl)pyrimidine-4-carboxamide]",< 2,< 2,0.301 to 1 µM,0.801 to 1,> 1
"Cn1cnnc1CC1(c2cccc(NC(=O)c3nc4c(C(F)(F)F)cccc4[nH]3)c2)COC1 [Compound 335, N-(3-{3-[(4-methyl-1,2,4-triazol-3-yl)methyl]oxetan-3-yl}phenyl)-4-(trifluoromethyl)-1H-1,3-benzodiazole-2-carboxamide]",< 2,< 2,< 0.1 µM,0.801 to 1,> 1
"Cc1cc(C(=O)Nc2cccc(C3(Cc4nncn4C)COC3)c2)nc(C2CC2)n1 [Compound 336, 2-cyclopropyl-6-methyl-N-(3-(3-((4-methyl-4H-1,2,4-triazol-3-yl)methyl)oxetan-3-yl)phenyl)pyrimidine-4-carboxamide]",< 2,> 3.01,< 0.1 µM,> 1,> 1
"C[C@H](Cc1nncn1C)c1cccc(N2Cc3c(cc(CN4CC(O)C4)cc3C(F)(F)F)C2=O)c1 [Compound 393, (R)-6-((3-hydroxyazetidin-1-yl)methyl)-2-(3-(1-(4-methyl-4H-1,2,4-triazol-3-yl)propan-2-yl)phenyl)-4-(trifluoromethyl)isoindolin-1-one]",< 2,2.01 to 3,< 0.1 µM,–,–
C[C@H](Cc1nncn1C)c1cccc(N2Cc3c(cc(CN4CC(C)(O)C4)cc3C(F)(F)F)C2=O)c1 [Compound 397],< 2,2.01 to 3,< 0.1 µM,–,–
"C[C@H](Cc1nncn1C)c1cccc(N2Cc3c(cc(CN4CC[C@](C)(O)C4)cc3C(F)(F)F)C2=O)c1 [Compound 398, 6-(((S)-3-hydroxy-3-methylpyrrolidin-1-yl)methyl)-2-(3-((R)-1-(4-methyl-4H-1,2,4-triazol-3-yl)propan-2-yl)phenyl)-4-(trifluoromethyl)isoindolin-1-one]",2.01 to 3,2.01 to 3,< 0.1 µM,–,–
"C[C@H](Cc1nncn1C)c1cccc(N2Cc3c(cc(CN4CC[C@H](F)C4)cc3C(F)(F)F)C2=O)c1 [Compound 399, 6-(((S)-3-fluoropyrrolidin-1-yl)methyl)-2-(3-((R)-1-(4-methyl-4H-1,2,4-triazol-3-yl)propan-2-yl)phenyl)-4-(trifluoromethyl)isoindolin-1-one]",2.01 to 3,> 3.01,< 0.1 µM,–,–
"Cn1cnnc1C(F)(F)[C@](C)(F)c1cccc(N2Cc3c(cc(C(=O)N4CC[C@H](O)C4)cc3C(F)(F)F)C2=O)c1 [Compound 438, 6-((S)-3-hydroxypyrrolidine-1-carbonyl)-2-(3-((R)-1,1,2-trifluoro-1-(4-methyl-4H-1,2,4-triazol-3-yl)propan-2-yl)phenyl)-4-(trifluoromethyl)isoindolin-1-one]",< 2,< 2,0.1 to 0.3 µM,–,–
Cn1cnnc1C(F)(F)[C@](C)(F)c1cccc(N2Cc3c(cc(CN4CC[C@@H](F)C4)cc3C(F)(F)F)C2=O)c1 [Compound 450],< 2,2.01 to 3,< 0.1 µM,–,–
"COC1CN(Cc2cc3c(c(C(F)(F)F)c2)CN(c2cccc([C@@](C)(F)C(F)(F)c4nncn4C)c2)C3=O)C1 [Compound 452, (R)-6-((3-methoxyazetidin-1-yl)methyl)-2-(3-(1,1,2-trifluoro-1-(4-methyl-4H-1,2,4-triazol-3-yl)propan-2-yl)phenyl)-4-(trifluoromethyl)isoindolin-1-one]",< 2,< 2,< 0.1 µM,–,–
"C[C@H](Cc1nncn1C)c1cccc(NC(=O)c2cc3cc(N4CCNCC4)ccc3cn2)c1 [Compound 472, N-{3-[(2R)-1-(4-methyl-4H-1,2,4-triazol-3-yl)propan-2-yl]phenyl}-6-(piperazin-1-yl)isoquinoline-3-carboxamide]",< 2,< 2,< 0.1 µM,–,–
